According to patent US20250243174A1, “ANTITUMORAL COMPOUNDS” (PHARMA MAR, S.A., priority 2021, published 2025):

Key:
[1] = MTMD (Maximum Tolerated Multiple Dose) determination; format: in vivo; conditions: iv, Q7dx3; female athymic nude mice
Experimental: Female Athymic Nude-Fox1 nu/nu mice (Envigo) were utilized for all experiments. Animals (N=10/cage) were housed in individually ventilated cages (Sealsafe Plus®, Techniplast S.P.A.), on a 12-hour light-dark cycle at 21-23° C. and 40-60% humidity. Mice were allowed free access to irradiated standard rodent diet (Tecklad 2914C) and sterilized water. Animals were acclimated for five days prior to being individually tattoo-identified. Animal protocols were reviewed and approved according to the regional Institutional Animal Care and Use Committees.
Mice were randomly allocated into experimental groups and intravenously administered, once for the MTD (Maximum Tolerated Dose) determination or one administration a week during three consecutive weeks, for the MTMD (Maximum Tolerated Multiple Dose) determination study. The animals were administered with white formulation or with compound dissolved in the experimental formulation at different concentrations. The volume administered was always 10 mL/kg. Once administered, animals were monitored for clinical signs of systemic toxicity, changes in body weight and mortality up to 14 days after the administration.

HCT-116 xenografts = experiment: Example 7, colon xenograft model HCT-116; format: in vivo; conditions: for TV, median (IQR) / Median survival time: iv Q7dx3; for TV, median (IQR): high dose: PM060184 16, Comp. 2 2, Comp. 3 1 mg/kg; for mean time with tumor remission: high dose: compound 2 2.0, compound 3 1.0, PM060184 16 mg/kg; for animals in complete tumor remission: highest dose: compound 2 2.0, compound 3 1.0 mg/kg; for antitumor activity compared to PM060184-treated group at 16 mg/kg: once treatments were finalized (days 21 to 35), 2 at 2 mg/kg, 3 at 1 mg/kg; for mean body weight reduction: recorded on Day 9, compound 2 2.0 mg/kg, compound 3 1.0 mg/kg
Experimental: Female athymic nu/nu mice (Harlan Laboratories Models, S.L. Barcelona, Spain or Envigo, Spain) were utilized for all experiments. Animal were housed in individually ventilated cages Sealsafe® Plus, Techniplast S.P.A.), up to ten per cage on a 12-hour light-dark cycle at 21-23° C. and 40-60% humidity. Mice were allowed free access to irradiated standard rodent diet (Tecklad 2914C) and sterilized water. Animals were acclimated for at least 5 days prior to tumor implantation with a tumor cell suspension.
HCT116 cells were maintained in vitro at 37° C., 5% Co2 in McCoy's 5A Medium (Sigma Aldrich, Co.). Culture cells were passage every 3 to 5 days on reaching confluence. Each animal was subcutaneously implanted (on the right flank using 26G needle and a 1 cc syringe) at 4-6 weeks of age with 5×10^6 HCT116 cells suspended in 0.05 mL of a solution consisting of 50% Matrigel® (Corning Incorporated Life Sciences) and 50% medium without serum or antibiotics.
All treatments were intravenously administered on a weekly basis at their MTD, ¼ MTD and 1/16 MTD (high, medium and low dose).
Briefly: • 4 to 6 week-old athymic nu/nu female mice were subcutaneously implanted with tumor cells growing in culture. • When tumors reached a certain volume, tumor bearing animals (N=8-10/group) were randomly allocated into treatment groups. • Tumor dimensions and body weights were recorded 2-3 times per week starting from the first day of treatment (Day 0). Treatments producing >20% lethality and/or 20% net body weight loss were considered toxic. Tumor volume was calculated using the equation (a·b^2)/2, where a and b were the longest and shortest diameters, respectively. Animals were euthanized when their tumors reached ca. 2,000 mm^3 and/or severe necrosis was seen. • Median was calculated for tumor volume on each measurement day. • Antitumor effect was assessed comparing tumor volume data from groups following the 1st, 2nd, 3rd study weeks, or more depending on the case, using a two-tailed Mann-Whitney U test. The data are presented as medians and interquartile range (IQR). • Complete tumor regression (CR) was defined when tumor volume<63 mm^3 for 2 or more consecutive measurements. • Treatment tolerability was assessed by monitoring body weight evolution, clinical signs of systemic toxicity as well as evidences of local damage at the injection site.
PM060184 was provided in the form of freeze-dried vials of lyophilized product. Each vial was reconstituted with water for infusion to a concentration of 2.5 mg/mL.
Compounds 2 and 3 were provided in the powder form and were solubilized with hydroxy-propyl-β-cyclodextrin (HPβCD), reaching a concentration of 1 mg/ml or 0.2 mg/ml, respectively. Placebo was provided in the form of lyophilised cake containing 1.2 g of hydroxy-propyl-β-cyclodextrin (HPβCD) which was reconstituted with water for infusion.
In these experiments, compounds 2, 3 and PM060184, as well as placebo, were intravenously administered once per week for 3 consecutive weeks, on Days 0, 7 and 14, whenever it was possible.
The experiment was carried out as previously explained. When tumors reached ca. 195-205 mm^3, tumor bearing animals (N=10/group) were randomly allocated into the following treatment groups:
Treatments were initiated on Day 0.

[2] = high dose: PM060184 16.0, Comp. 2 2.0, Comp. 3 1.0 mg/kg, ud = group not reached mortality
[3] = low dose: PM060184 1.0, Comp. 2 0.125, Comp. 3 0.0625 mg/kg
[4] = medium dose: PM060184 4.0, Comp. 2 0.5, Comp. 3 0.25 mg/kg
[5] = medium-dose: compound 2 0.5, compound 3 0.25 mg/kg

| SMILES | MTMD [1] | TV, median (IQR) (HCT-116 xenografts; Day 7) | TV, median (IQR) (HCT-116 xenografts; Day 14) | TV, median (IQR) (HCT-116 xenografts; Day 21) | TV, median (IQR) (HCT-116 xenografts; Day 28) | TV, median (IQR) (HCT-116 xenografts; Day 35) | Median survival time (HCT-116 xenografts; [2]) | mean time with tumor remission (HCT-116 xenografts) | animals in complete tumor remission (HCT-116 xenografts) | Median survival time (HCT-116 xenografts; [3]) | Median survival time (HCT-116 xenografts; [4]) | animals that reached a complete remission (n/10) (HCT-116 xenografts; [5]) | complete remission lasted a mean of (HCT-116 xenografts; [5]) | antitumor activity compared to PM060184-treated group at 16 mg/kg (HCT-116 xenografts) | mean body weight reduction (HCT-116 xenografts) | animals that reached a complete remission (n/10) (HCT-116 xenografts; high-dose: PM060184 16 mg/kg) | body weight decrease (HCT-116 xenografts; recorded on Day 2, PM060184 16 mg/kg) |
| --- | --- | --- | --- | --- | --- | --- | --- | --- | --- | --- | --- | --- | --- | --- | --- | --- | --- |
| COC1=CC[C@@H]([C@@H](C)/C=C(C)/C=C\C=C/C(=O)N[C@H](C(=O)N/C=C\C[C@H](C/C=C(\C)F)OC(N)=O)C(C)(C)C)OC1=O [Compound 2] | 2.0 mg/kg | 135.5 (114.1-154.5) mm3 | 57.2 (47.1-62.9) mm3 | 25.0 (13.5-34.0) mm3 | 13.5 (13.5-32.0) mm3 | 13.5 (13.5-13.5) mm3 | ud | 25.8 days | 100% | 19 days | 58 days | 4/10 | 9 days | big difference, in terms of antitumor activity, statistically significant | ca. −13.5% | – | – |
| COC1=CC[C@@H]([C@@H](C)/C=C(C)/C=C\C=C/C(=O)N[C@H](C(=O)N/C=C\C[C@H](CC=C(C)C)OC(N)=O)C(C)(C)C)OC1=O [Compound 3] | 1.0 mg/kg | 121.6 (86.3-164.8) mm3 | 55.6 (16.2-82.3) mm3 | 32.0 (4.0-40.0) mm3 | 13.5 (4.0-13.5) mm3 | 13.5 (13.5-13.5) mm3 | ud | 23.7 days | 100% | 14 days | 49 days | 1/10 | 2 days | big difference, in terms of antitumor activity, statistically significant | ca. −16.2% | – | – |
| C/C=C\C[C@@H](C/C=C\NC(=O)[C@@H](NC(=O)\C=C/C=C\C(C)=C\[C@H](C)[C@@H]1CC=C(OC)C(=O)O1)C(C)(C)C)OC(N)=O [PM060184, reference compound] | 16.0 mg/kg | 140.5 (123.0-157.3) mm3 | 59.2 (50.7-84.2) mm3 | 63.8 (43.6-80.0) mm3 | 265.7 (195.2-284.3) mm3 | 650.2 (516.7-732.6) mm3 | 47 days | 5.8 days | – | 19 days | 43 days | – | – | – | – | 6/10 | ca. −3.2% |
